Molecules are shown by their SMILES.

These results are taken from patent EP0341154A2, “Analogues of L-fucose, process for their preparation, their application for the preparation of glycals, anthracycline derivatives of the glycals and the use of the anthracyclines as medicaments” (priority 1988, dated 1989).

The nature of data set [1]: Acute toxicity in mice (Litchfield Wilcoxon). The class given is in vivo, souris NMRI. The settings on record: 3 x i.p., NMRI mice, deaths counted after two weeks. From the text:
La substance à tester est injectée à des souris NMRI selon le protocole tel que précisé dans le Tableau IV, ci-après.
Après deux semaines, le nombre total d'animaux décédés dans chaque groupe est calculé et les DL₅₀ sont évaluées en utilisant la méthode de Litchfield Wilcoxon.

Data set [2] relates to L1210. Kind of data set: In vivo antitumour effect on L1210 ascites leukemia in mice. On the set-up: species or system souris BDF1. To be noted: for L1210 T/C %: 3 x 1.p./ 1.p. Q3D, BDF1 mice. The procedure:
Un liquide d'ascite est prélevé dans les conditions aseptiques chez des souris DBA2 (femelle, 18 - 20 g) le septième jours après l'implantation.
L'ascite est lavée trois fois avec du PBS, comptée et finalement diluée dans du PBS, de manière à obtenir 10⁶ cellules/0,2 ml.
10⁶ cellules dans 0,2 ml de P BS sont injectées dans le peritoine de souris DBA2 pour la propagation de la lignée cellulaire.
10⁶ cellules dans 0,2 ml de PBS sont injectés intrapériotonéalement à des souris BDF1 (femelle 18 - 20 g), 6 animaux/group sont utilisés pour chaque concentration de substance et pour le contrôle.
• a) les animaux sont pesés le premier jour et le cinquième jour après l'administration du médicament. Une perte de poids supérieure à 20 % le cinquième jour est utilisée comme indicateur d'effet toxique du produit. • b) à la fin de l'expérience, (mort de tous les animaux ou soixantième jour de l'essai), le temps moyen de survie des animaux, dans tous les groupes ayant plus de 65 % de survivants au cinquième jour, est évalué selon des procédures standard.
Les animaux survivants au soixantième jour sont considérés comme des survivants de longue durée (LTS : Long Time Survivors) et sont répertoriés séparément.
A partir du temps de survie moyen des groupes traités (MSTT) et des groupes contrôle (MSTC), l'effet antitumoral (T/C) est évalué en fonction de la formule suivante : [formula]
Les valeurs T/C de plus de 125 % sont considé-rées comme des indicateurs d'un effet antitumoral significatif.

Data set [3] relates to L1210. Put plainly: MTT reduction proliferation test, 72 h incubation. The class given is cell-based. The settings on record: L1210 cells. The procedure: (§1) Des cellules tumorales L1210, A549 et HT29, à une concentration de 5.10³/ml dans un milieu RPMI, sont incubées dans des plaques de microtitration contenant 96 puits, pendant 72 heures (37°C, 5 % CO₂, 95 % d'humidité relative) avec différentes concentrations de chacun des glycosides (anthracyclines) conformes à l'invention.
(§2) Les témoins consistent en cellules tumorales exposées à un milieu de culture. Quatre puits sont préparés pour chaque concentration en glycoside et pour le témoin. Après 65 heures, 50 µl de MTT (2,5 mg/ml dans du PBS) sont ajoutés.
(§3) Le MTT sera réduit, en présence de cellules vivantes en un colorant formazan rouge insoluble. Après 7 à 24 heures d'incubation supplémentaire, le surnageant est enlevé. Le colorant formazan est solubilisé par l'addition de 100 µl de DMSO dans chaque puits, suivie d'une agitation douce.
(§4) L'extinction est mesurée pour chaque puits, à 492 nm (photomètre Multiscan 340 CC Fa. Flow).
(§5) Les résultats sont exprimés comme le rapport de l'extinction après incubation avec les glycosides sur l'extinction obtenue avec les témoins. Le coefficient de variation est inférieur à 15 %.
On the technique in general: Tetrazolium dyes change colour on reduction, which living cells bring about.

The test system of a further data set is HT29. Kind of data set: MTT reduction proliferation test, 72 h incubation. In kind it is cell-based. The settings on record: HT 29 cells. The procedure: as §1, §2, §3, §4, §5
The subject of the next data set is A549. Kind of data set: MTT reduction proliferation test, 72 h incubation. The class given is cell-based. The settings on record: A 549 cells. Here is the method:
as §1, §2, §3, §4, §5

Consider `CCC1(O)CC(OC2CC(OC(C)=O)C(OC(C)=O)C(C)O2)c2c(O)c3c(c(O)c2C1O)C(=O)c1cccc(O)c1C3=O` [21 a, O-(di-O-acétyl-3′,4′ didésoxy-2′,6′-α-L-thréo-hexopyrannosyl)-7 β-Rhodomycinone], for which the DL₅₀ in data set [1] is on record as over 21.3. Further, the “L1210 T/C %” value in the data set on L1210 [2] (10.00 mg/kg/Inj.) amounted to 134%; in the data set on L1210 [2] (13.30 mg/kg/Inj.) it was 152%; in the data set with L1210 [2] (17.70 mg/kg/Inj.) it was 146%. In the data set with L1210 [2] (17.70 mg/kg/Inj., 6 animals/group), the Morts toxiques is listed as 1/6. Further, the “CI₅₀ TEST AU MTT L1210” value with L1210 [3] is listed as 0,03 µg/ml. Besides, in the data set with HT29, the “CI₅₀ TEST AU MTT HT 29” value is 0,038 µg/ml. The “CI₅₀ TEST AU MTT A 549” value with A549 is reported as 0,086 µg/ml.
With `CC[C@@H]1O[C@@H](O[C@H]2C[C@](O)(CC)[C@H](O[C@@H]3C[C@H](OC(C)=O)[C@H](OC(C)=O)[C@H](CC)O3)c3c(O)c4c(c(O)c32)C(=O)c2c(O)cccc2C4=O)C[C@H](OC(C)=O)[C@@H]1OC(C)=O` [22 b, Di-O-(di-O-acétyl-3′,4′tridésoxy-2′,6′,7′-α-L-thréoheptopyrannosyl)-7,10 β-Rhodomycinone], the “CI₅₀ TEST AU MTT L1210” value with L1210 [3] is over 1 µg/mL. Moreover, the “CI₅₀ TEST AU MTT HT 29” value in the data set with HT29 is over 1 µg/mL. In the data set on A549, the “CI₅₀ TEST AU MTT A 549” value was over 1 µg/mL.
For the compound `CC[C@@H]1O[C@@H](O[C@H]2C[C@](O)(CC)[C@H](O)c3c(O)c4c(c(O)c32)C(=O)c2c(O)cccc2C4=O)C[C@H](OC(C)=O)[C@@H]1OC(C)=O` [21 b, O-(di-O-acétyl-3′-4′ tridésoxy-2′,6′,7′-α-L-thréo-heptopyrannosyl)-7 β-Rhodomycinone], in the data set with L1210 [3], the “CI₅₀ TEST AU MTT L1210” value is reported as 0,51 µg/ml. Besides, the “CI₅₀ TEST AU MTT HT 29” value in the data set on HT29 is over 1 µg/mL. The “CI₅₀ TEST AU MTT A 549” value in the data set with A549 is listed as 0,46 µg/ml.
Regarding `CCCCC[C@@H]1O[C@@H](O[C@H]2C[C@](O)(CC)[C@H](O)c3c(O)c4c(c(O)c32)C(=O)c2c(O)cccc2C4=O)C[C@H](OC(C)=O)[C@@H]1OC(C)=O` [21 c, O-(di-O-acétyl-3′,4′hexadésoxy-2′,6′,7′,8′,9′,10′-α-L-thréodécapyrannosyl)-7 β-Rhodomycinone], the “CI₅₀ TEST AU MTT L1210” value with L1210 [3] is over 1 µg/mL. For the same compound, the “CI₅₀ TEST AU MTT HT 29” value with HT29 is over 1 µg/mL. For the same compound, the “CI₅₀ TEST AU MTT A 549” value in the data set with A549 is over 1 µg/mL.
For the compound `CCCCCC1OC(OC2CC(O)(CC)C(OC3CC(OC(C)=O)C(OC(C)=O)C(CCCCC)O3)c3c(O)c4c(c(O)c32)C(=O)c2c(O)cccc2C4=O)CC(OC(C)=O)C1OC(C)=O` [22 c, di-O-(di-O-acétyl-3′,4′ hexadésoxy-2′,6′,7′,8′,9′, 10′-α-L-thréodécapyrannosyl)-7,10 β-Rhodomycinone], the “CI₅₀ TEST AU MTT L1210” value in the data set on L1210 [3] is over 1 µg/mL. In addition, the “CI₅₀ TEST AU MTT HT 29” value in the data set with HT29 was over 1 µg/mL. Also, the “CI₅₀ TEST AU MTT A 549” value in the data set on A549 was over 1 µg/mL.
Consider `CCCCC1OC(OC2CC(O)(C(C)=O)Cc3c(O)c4c(c(O)c32)C(=O)c2c(OC)cccc2C4=O)CC(OC(C)=O)C1OC(C)=O` (centres unmarked) [20 c, acétoxy-3′ O-acétyl-4′ désamino-3′ propyl-6′ daunorubicine], for which, in the data set on L1210 [3], the “CI₅₀ TEST AU MTT L1210” value was over 1 µg/mL. In addition, the “CI₅₀ TEST AU MTT HT 29” value in the data set with HT29 is over 1 µg/mL. For the same compound, in the data set on A549, the “CI₅₀ TEST AU MTT A 549” value is over 1 µg/mL.
